Assay results reported in the NIST ThermoML archive (doi:10.1021/je100610v).

Test: molar heat capacity at constant pressure; xn = mol fraction of the nth substance listed
Details: 101 kPa, Liquid

ClCCCCCCCl [1,6-dichlorohexane] + CCCCCCC
molar heat capacity at constant pressure [J/K/mol]
Details | x1 = 0.1033 | x1 = 0.2005 | x1 = 0.3004 | x1 = 0.397 | x1 = 0.5025 | x1 = 0.5978 | x1 = 0.7012 | x1 = 0.7975 | x1 = 0.8993 | x1 = 1
293.15 K | 224.18 | 225.58 | 226.93 | 228.73 | 230.53 | 232.22 | 233.79 | 235.58 | 237.46 | 239.21
294.15 K | 224.47 | 225.71 | 227.22 | 229.08 | 230.89 | 232.55 | 234 | 235.86 | 237.73 | 239.5
295.15 K | 224.85 | 226.27 | 227.61 | 229.51 | 231.34 | 232.94 | 234.33 | 236.23 | 238.1 | 239.69
296.15 K | 225.28 | 226.73 | 227.98 | 229.89 | 231.84 | 233.25 | 234.73 | 236.51 | 238.39 | 240.02
297.15 K | 225.7 | 227.04 | 228.31 | 230.27 | 231.98 | 233.48 | 235.05 | 236.81 | 238.57 | 240.35
298.15 K | 226.02 | 227.35 | 228.65 | 230.41 | 232.13 | 233.77 | 235.36 | 237.1 | 238.92 | 240.64
299.15 K | 226.42 | 227.84 | 228.96 | 230.75 | 232.24 | 234 | 235.65 | 237.33 | 239.06 | 240.85
300.15 K | 226.82 | 228.08 | 229.21 | 231.06 | 232.49 | 234.22 | 236.05 | 237.68 | 239.39 | 241.15
301.15 K | 227.16 | 228.49 | 229.61 | 231.57 | 232.94 | 234.6 | 236.34 | 238.04 | 239.79 | 241.46
302.15 K | 227.48 | 228.83 | 230 | 231.8 | 233.35 | 234.96 | 236.63 | 238.29 | 240.08 | 241.8
303.15 K | 227.86 | 229.13 | 230.36 | 232.08 | 233.73 | 235.31 | 236.93 | 238.61 | 240.37 | 242.06
304.15 K | 228.19 | 229.46 | 230.7 | 232.56 | 234.04 | 235.48 | 237.2 | 238.86 | 240.64 | 242.34
305.15 K | 228.57 | 229.83 | 230.91 | 232.74 | 234.33 | 235.88 | 237.53 | 239.21 | 240.92 | 242.62
306.15 K | 228.88 | 230.1 | 231.36 | 233.13 | 234.4 | 236.03 | 237.84 | 239.44 | 241.2 | 242.83
307.15 K | 229.3 | 230.51 | 231.65 | 233.51 | 235.07 | 236.5 | 238.18 | 239.76 | 241.48 | 243.21
308.15 K | 229.71 | 230.91 | 232.08 | 233.76 | 235.33 | 236.85 | 238.49 | 240.12 | 241.83 | 243.49
309.15 K | 230.05 | 231.19 | 232.35 | 234.03 | 235.45 | 237.17 | 238.74 | 240.37 | 242.06 | 243.73
310.15 K | 230.4 | 231.55 | 232.73 | 234.35 | 235.77 | 237.52 | 239.07 | 240.64 | 242.36 | 244
311.15 K | 230.86 | 231.97 | 233.11 | 234.88 | 236.41 | 237.89 | 239.43 | 241.08 | 242.73 | 244.35
312.15 K | 231.16 | 232.33 | 233.45 | 235.01 | 236.75 | 238.16 | 239.72 | 241.32 | 243.02 | 244.68
313.15 K | 231.55 | 232.68 | 233.79 | 235.43 | 236.93 | 238.39 | 240.06 | 241.64 | 243.28 | 244.91
